Assays:
α-amylase [1] = biological target: T1, α-amylase (Sus scrofa, UniProt P00690); experiment: α-Amylase inhibitory activity assay (Gal-G2-α-CNP substrate); assay type: biochemical; details: 37 °C, pH 6.8
T1 sequence (P00690 16-511): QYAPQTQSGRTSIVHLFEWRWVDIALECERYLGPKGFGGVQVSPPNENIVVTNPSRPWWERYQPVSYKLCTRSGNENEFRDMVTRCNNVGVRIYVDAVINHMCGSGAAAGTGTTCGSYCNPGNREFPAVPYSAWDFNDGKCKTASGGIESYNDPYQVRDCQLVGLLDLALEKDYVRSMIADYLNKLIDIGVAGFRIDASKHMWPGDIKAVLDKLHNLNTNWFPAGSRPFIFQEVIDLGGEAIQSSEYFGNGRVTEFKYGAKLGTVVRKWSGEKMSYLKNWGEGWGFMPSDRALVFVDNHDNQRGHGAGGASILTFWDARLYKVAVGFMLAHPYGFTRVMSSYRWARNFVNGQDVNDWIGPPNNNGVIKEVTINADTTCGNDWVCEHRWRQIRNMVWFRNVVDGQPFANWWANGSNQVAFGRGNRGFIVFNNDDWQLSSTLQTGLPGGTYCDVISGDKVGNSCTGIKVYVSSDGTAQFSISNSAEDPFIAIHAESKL
Method: The inhibitory activity detection process was slightly modified, with reference as the base method from the literature. […] After thorough mixing, the samples were pre-incubated at 37 °C for 10 min. Subsequently, 100 μL of 5 mmol/L Gal-G2-α-CNP substrate was added to each sample. Following a 3 min reaction period, the absorbance of the solutions at 405 nm was measured using a microplate reader. The inhibition rate (%) was calculated based on the absorbance readings according to Formula (1).(1) inhibition rate%=(1−(A1−A2)/(A3−A4))×100
In the formula, A1 represents the sample group; A2 represents the sample control group (where the enzyme was replaced with phosphate buffer); A3 represents the blank control group; and A4 represents the reagent blank control group (containing blank sample solution and phosphate buffer).
(§1) Using the enzyme inhibition rate as the y-axis and the inhibitor concentration as the x-axis, the IC50 value was calculated through linear regression fitting with GraphPad Prism software (5.0).

α-glucosidase [2] = biological target: T2, α-glucosidase (Saccharomyces cerevisiae, UniProt P53341); experiment: α-Glucosidase inhibitory activity assay (pNPG substrate); assay type: biochemical; details: 37 °C
T2 sequence (P53341 whole entry): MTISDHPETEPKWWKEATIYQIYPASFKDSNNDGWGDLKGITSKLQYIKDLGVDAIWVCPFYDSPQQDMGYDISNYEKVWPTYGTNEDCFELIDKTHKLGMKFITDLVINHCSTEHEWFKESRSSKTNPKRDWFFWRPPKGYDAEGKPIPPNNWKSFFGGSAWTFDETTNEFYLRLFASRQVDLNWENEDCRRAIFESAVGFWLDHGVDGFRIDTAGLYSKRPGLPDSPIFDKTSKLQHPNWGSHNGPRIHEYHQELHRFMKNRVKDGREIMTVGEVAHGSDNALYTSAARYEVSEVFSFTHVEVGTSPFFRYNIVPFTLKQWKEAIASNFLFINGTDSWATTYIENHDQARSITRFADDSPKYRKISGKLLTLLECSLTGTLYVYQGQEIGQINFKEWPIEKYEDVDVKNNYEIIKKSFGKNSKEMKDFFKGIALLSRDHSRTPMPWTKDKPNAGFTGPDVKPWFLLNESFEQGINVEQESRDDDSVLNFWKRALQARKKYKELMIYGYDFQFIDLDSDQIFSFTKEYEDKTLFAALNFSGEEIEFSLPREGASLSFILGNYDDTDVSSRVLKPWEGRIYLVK
Method: The experimental groups were supplemented with different concentrations of porphyrin compounds, followed by the addition of 100 μL of 5 mmol/L pNPG. After thorough mixing, the samples were pre-incubated at 37 °C for 10 min. Subsequently, the reaction was terminated by adding 0.1 mol/L of sodium carbonate (Na2CO3) solution. Following a 3 min reaction period, the absorbance of the solutions at 405 nm was measured using a microplate reader. The inhibition rate (%) was subsequently calculated using Formula (1).
as §1

α-amylase [3] = biological target: T1, α-amylase; experiment: Mode of α-AMY inhibition (reversibility, Lineweaver–Burk kinetics); assay type: biochemical
Text: In the experiment, the concentration of the fixed substrate Gal-G2-α-CNP/pNPG solution was 5 mmol/L, and the concentrations of the two enzymes (100, 200, 300, 400 U/L) were used to determine the effect of different concentrations of porphyrins on enzyme activity. The concentration of the enzyme was 200 U/L, and the concentration of the substrate Gal-G2-α-CNP/pNPG solution (2.5, 5, 7.5, 10 mmol/L) was used to determine the effect of different concentrations of porphyrins on the enzyme-catalyzed substrate activity.
Upon identifying the type of inhibition, the kinetic equations vary for different inhibition types.
In the formula, v, Vmax, Km, Ki, and Kis represent the reaction rate, maximum reaction rate, Michaelis constant, and free enzyme inhibition constant, respectively, and the binding enzyme inhibition constant. [S] denotes the substrate concentration. [I] denotes the inhibitor concentration.

α-amylase [4] = biological target: T1, α-amylase; experiment: In vitro stability study (temperature, pH), inhibition rate against α-amylase; assay type: physicochemical; details: water bath 30–100 °C, 20 min
Method: (§2) Samples of a certain mass concentration were subjected to a water bath at different temperatures (30, 40, 50, 60, 70, 80, 90, 100 °C) for 20 min and treated under different pH conditions (2.0, 3.0, 4.0, 5.0, 6.0, 7.0, 8.0, 9.0, and 10.0) for 20 min to determine the effect of temperature and pH on the stability of the two enzymes.

α-glucosidase [5] = biological target: T2, α-glucosidase; experiment: In vitro stability study (temperature, pH), inhibition rate against α-glucosidase; assay type: physicochemical; details: water bath 30–100 °C, 20 min
Method: as §2

α-glucosidase [6] = biological target: T2, α-glucosidase; experiment: FTIR secondary structure analysis of α-GLU complexes; details: enzyme–porphyrin molar ratio 1:2, amide I band
Text: A molar ratio of 1:2 (α-amylase/α-glucosidase)–porphyrin solution was placed in a cryocentrifugal concentrator and the dried solid sample was mixed with dry KBr and measured using a Nicolet IS-50 FTIR Spectrometer (ThermoFisher, Waltham, MA, USA) with a scanning range of 4000–400 cm^−1 and a resolution of 4 cm^−1. The overlapping peaks in the amide I band (1700–1600 cm^−1) were further analyzed into multiple feature sub-peaks, and quantitative analysis of the relative content of various secondary structures in proteins using curve fitting methods was performed.

HepG2 cells = experiment: MTT cytotoxicity assay; assay type: cell-based, human; details: 24 h
Method: The cytotoxicity of six porphyrin compounds against human hepatocellular carcinoma HepG2 cells was evaluated using the MTT assay. HepG2 cells were seeded into 96-well plates at a density of 5000 cells per well and cultured for 24 h at 37 °C in a 5% CO2 incubator. Then, 100 µL of sample solutions at various concentrations (50, 100, and 200 µg/mL) was added to the experimental wells, with blank control wells and solvent control wells also included. The cells were further incubated for 24 h. After incubation, 10 µL of MTT solution (5 mg/mL) was added to each well, and the plates were incubated for another 4 h. Subsequently, 100 µL of Formazan solubilization solution was added to each well, followed by gentle mixing. The plates were returned to the incubator and maintained until complete dissolution of Formazan crystals was observed under a microscope. The absorbance at 570 nm was measured using a microplate reader (Meigu Molecular Instrument Company, Shanghai, China), and the survival rate of HepG2 cells was calculated.(12) Cell viability=As-Ab/Ac-Ab×100%
In the formula, As represents the absorbance of the sample well, Ac denotes the absorbance of the blank control well (without the drug), and Ab refers to the absorbance of the solvent control well (devoid of both cells and the drug).

Structure (SMILES): O=C(O)c1ccc(-c2c3nc(c(-c4ccc(C(=O)O)cc4)c4ccc([nH]4)c(-c4ccc(C(=O)O)cc4)c4nc(c(-c5ccc(C(=O)O)cc5)c5ccc2[nH]5)C=C4)C=C3)cc1.[Cu+2] [Cu–TCPP, copper (II) meso-tetra (4-carboxyphenyl)porphyrin]
- IC50 α-amylase (α-amylase [1]): 245.04 ± 0.26 mg/L
- IC50 α-GLU (α-glucosidase [2]): 25.33 ± 0.55 mg/L
- Km (α-amylase [3]; C 25 μg/mL): 2.8021 ± 0.0410 µg/mL
- Vmax (α-amylase [3]; C 25 μg/mL): 0.1101 ± 0.0016 ΔOD/min
- Km (α-amylase [3]; C 50 μg/mL): 3.1685 ± 0.0729 µg/mL
- Vmax (α-amylase [3]; C 50 μg/mL): 0.1050 ± 0.0024 ΔOD/min
- Km (α-amylase [3]; C 100 μg/mL): 3.5949 ± 0.0569 µg/mL
- Vmax (α-amylase [3]; C 100 μg/mL): 0.0923 ± 0.0015 ΔOD/min
- Km (α-amylase [3]; C 150 μg/mL): 3.9016 ± 0.1355 µg/mL
- Vmax (α-amylase [3]; C 150 μg/mL): 0.0860 ± 0.0031 ΔOD/min
- Km (α-amylase [3]; C 200 μg/mL): 4.2470 ± 0.0673 µg/mL
- Vmax (α-amylase [3]; C 200 μg/mL): 0.0785 ± 0.0012 ΔOD/min
- type of inhibition of α-amylase (α-amylase [3]; Lineweaver–Burk plots): mixed type
- reversibility of inhibition of α-amylase (α-amylase [3]; enzyme 100–400 U/L, substrate 5 mmol/L): reversible inhibition
- Kis (α-amylase [3]; enzyme–substrate complex inhibition constant): 420.9420 ± 0.2189 µg/mL
- Ki (α-amylase [3]; free enzyme inhibition constant): 135.8043 ± 0.1608 mg/L
- thermal stability: inhibition rate against α-amylase (α-amylase [4]): small fluctuations
- thermal stability: inhibition rate against α-glucosidase (α-glucosidase [5]): remained relatively stable
- Random Coil (α-glucosidase [6]): 25.05 ± 0.07%
- α-Helix (α-glucosidase [6]): 23.65 ± 0.03%
- β-Antiparallel (α-glucosidase [6]): 2.59 ± 0.01%
- β-Sheet (α-glucosidase [6]): 10.93 ± 0.05%
- β-Turn (α-glucosidase [6]): 37.78 ± 0.09%
- cell viability (survival rate) (HepG2 cells; HepG2, 200 μg/mL): 43.13 ± 5.53%
- cell viability (HepG2 cells; HepG2, 50–100 μg/mL): above 80%

From PMC12467033, “Exploring the Inhibitory Potential of Six Porphyrin Compounds Against α-Amylase and α-Glucosidase Linked to Diabetes” (Biomolecules, 2025)
